Some test systems named below: M14; SK-MEL-28; NCI-H226; UACC-62; K562; OVCAR-8; KM12; PC-3; SNB-19; MOLT-4; U-251; HCC 2998; OVCAR-3; SNB-75; HL-60; A549; HCT-15; SK-MEL-5; LOX IMVI; HOP-92.
What all share (assay): NCI anticancer screen, dose series, 48 h

Consider 11 compounds from ChEMBL document CHEMBL1201862, “PubChem BioAssay data set” (2004).

Each structure is given as a SMILES string.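 Method: 48-hour compound exposure of cells in 96-well plates, five concentrations, linear interpolation of endpoints. The concentration for 50% growth inhibition is given as GI50.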 The source made the active and inactive calls. Cut-off read from the data, not from the text of the source: active = GI50 up to about 1.1 µM and inactive = higher.

In the case of `CC(=O)CC(=O)c1cc2c(=O)oc(C)cc2oc1=O`, the GI50 with M14, with SK-MEL-28, in the experiment with NCI-H226, in the experiment with UACC-62, in the experiment on K562 and in the experiment on OVCAR-8 was > 37.5 µM (inactive) each time. The GI50 with KM12, in the experiment on PC-3, in the experiment on SNB-19, with MOLT-4, in the experiment with U-251 and in the experiment on HCC 2998 was > 37.5 µM (inactive) in each case. In addition, the GI50 in the experiment with OVCAR-3 was > 37.5 µM (inactive); in the experiment on SNB-75, 2.75 µM (inactive); in the experiment on HL-60, > 37.5 µM (inactive); in the experiment with A549, > 37.5 µM (inactive); in the experiment with HCT-15 it was greater than 37.5 µM; with SK-MEL-5, > 37.5 µM (inactive).
Regarding `CC(C)=CCC/C(C)=C/CC/C(C)=C/[C@@H]1[C@@H](CO)[C@]1(C)CC/C=C(\C)CCC=C(C)C`, the GI50 in the experiment on M14 is 91.4 µM (inactive); with SK-MEL-28, > 100 µM (inactive); in the experiment with LOX IMVI, 11.5 µM (inactive); in the experiment on NCI-H226, 19.4 µM (inactive); in the experiment on K562, 31.3 µM (inactive); with OVCAR-8, 17.1 µM (inactive). The GI50 in the experiment on KM12 is 35.7 µM (inactive); in the experiment with PC-3, 23.9 µM (inactive); in the experiment with SNB-19, > 100 µM (inactive); with MOLT-4, 28.9 µM (inactive); with U-251 it was 53.7 µM (inactive); with OVCAR-3, 52.5 µM (inactive). The GI50 in the experiment with SNB-75 is > 100 µM (inactive); with A549, 39.8 µM (inactive); in the experiment on HOP-92, 16.6 µM (inactive); in the experiment with HCT-15, 30.3 µM; in the experiment on SK-MEL-5, 46 µM (inactive).
Consider `COc1ccc(C(=CCC(C)C2CCC3[C@@H]4C(OC(C)=O)CC5CC(OC(C)=O)CC[C@]5(C)C4CC(OC(C)=O)[C@]23C)c2ccc(OC)cc2)cc1` (some centres undefined), for which the GI50 with M14 was 19.1 µM (inactive); in the experiment on SK-MEL-28, 83.8 µM (inactive); in the experiment with K562, 67.8 µM (inactive); in the experiment with OVCAR-8, > 100 µM (inactive); with KM12, 76.6 µM (inactive); in the experiment on PC-3, 19.5 µM (inactive). In addition, the GI50 in the experiment on SNB-19 is > 100 µM (inactive); in the experiment with MOLT-4, 17.1 µM (inactive); in the experiment on U-251, > 100 µM (inactive); in the experiment with HCC 2998, > 100 µM (inactive); in the experiment on SNB-75 it was 34.8 µM (inactive); with HL-60 it was 8.02 µM (inactive). Besides, the values for the GI50 with A549, in the experiment on HCT-15 and in the experiment with SK-MEL-5 were > 100 µM (inactive), 86.5 µM and > 100 µM (inactive), respectively.
Consider `C=CCCCN1CCCCC1=S`, for which the GI50 in the experiment with M14, in the experiment on SK-MEL-28, in the experiment with LOX IMVI, with NCI-H226, in the experiment with UACC-62 and with K562 was > 100 µM (inactive) each time. Also, the GI50 in the experiment with OVCAR-8, with KM12, in the experiment with SNB-19, in the experiment with MOLT-4, with U-251 and with HCC 2998 was > 100 µM (inactive) in each case. Further, the GI50 was > 100 µM (inactive) in the experiment on OVCAR-3; 36.5 µM (inactive) in the experiment on SNB-75; > 100 µM (inactive) with HL-60; > 100 µM (inactive) in the experiment with A549; > 100 µM (inactive) in the experiment on HOP-92; greater than 100 µM with HCT-15. In addition, in the experiment with SK-MEL-5, the GI50 is > 100 µM (inactive).
For `CC12c3c4cc(Br)cc3Oc3cc(Br)cc(c31)Oc1cc(Br)cc(c12)O4`, the GI50 in the experiment on M14 was 35.4 µM (inactive); in the experiment with SK-MEL-28, 30.5 µM (inactive); with LOX IMVI it was 24.9 µM (inactive); with NCI-H226 it was 11.2 µM (inactive); in the experiment with UACC-62, 27.7 µM (inactive); in the experiment on K562, 44.4 µM (inactive). Besides, the GI50 with OVCAR-8 is 55 µM (inactive); in the experiment on KM12, 58.5 µM (inactive); in the experiment with PC-3, 21 µM (inactive); in the experiment on SNB-19 it was > 100 µM (inactive); with MOLT-4, 23.1 µM (inactive); in the experiment on U-251, 62.1 µM (inactive). Moreover, the GI50 in the experiment with HCC 2998 was 81.5 µM (inactive); in the experiment on OVCAR-3 it was 12.4 µM (inactive); in the experiment on SNB-75, 15.5 µM (inactive); with A549 it was 44.8 µM (inactive); with HCT-15, 41.4 µM; in the experiment with SK-MEL-5, 27.6 µM (inactive).
On to `CC1C(c2ccccc2)N(C)C(c2ccccc2)C(C)C1(O)c1ccccc1` (centres undefined), for which the GI50 in the experiment with M14 was > 100 µM (inactive); in the experiment on SK-MEL-28 it was > 100 µM (inactive); with LOX IMVI it was 37.2 µM (inactive); in the experiment on NCI-H226, 44.2 µM (inactive); with UACC-62, > 100 µM (inactive); in the experiment with K562 it was > 100 µM (inactive). Also, the GI50 in the experiment on OVCAR-8 is > 100 µM (inactive); in the experiment with KM12 it was 77.8 µM (inactive); in the experiment with SNB-19, > 100 µM (inactive); in the experiment on MOLT-4 it was > 100 µM (inactive); in the experiment on U-251 it was > 100 µM (inactive); in the experiment on HCC 2998, > 100 µM (inactive). The GI50 in the experiment on OVCAR-3 is 51.4 µM (inactive); in the experiment with SNB-75, 73.3 µM (inactive); in the experiment on HL-60, 31.8 µM (inactive); with A549, 99.5 µM (inactive); in the experiment with HOP-92, 83.9 µM (inactive); in the experiment with HCT-15, 84.1 µM. Also, in the experiment on SK-MEL-5, the GI50 was > 100 µM (inactive).
For the compound `c1ccc(C2=NCCc3cc4c(cc32)OCO4)cc1`, the GI50 in the experiment on M14, in the experiment on SK-MEL-28, with LOX IMVI, in the experiment on UACC-62, in the experiment on OVCAR-8 and in the experiment with KM12 was > 100 µM (inactive) each time. Moreover, the GI50 in the experiment with PC-3, in the experiment on SNB-19, with U-251, in the experiment on HCC 2998, with OVCAR-3 and in the experiment with A549 was > 100 µM (inactive) in each case. Also, in the experiment on SK-MEL-5, the GI50 is > 100 µM (inactive).
On to `COc1ccc(Cc2c(N)[nH]c(=O)[nH]c2=O)cc1`, for which the GI50 in the experiment with M14, in the experiment with SK-MEL-28, with LOX IMVI, in the experiment with NCI-H226, with UACC-62 and in the experiment on K562 was > 100 µM (inactive) each time. Besides, the GI50 in the experiment with OVCAR-8, with KM12, with PC-3, in the experiment on SNB-19, in the experiment on U-251 and in the experiment with HCC 2998 was > 100 µM (inactive) in each case. The GI50 with OVCAR-3 is > 100 µM (inactive); with SNB-75, > 100 µM (inactive); with A549, > 100 µM (inactive); in the experiment on HOP-92 it was 33.3 µM (inactive); in the experiment on HCT-15 it was greater than 100 µM; in the experiment on SK-MEL-5 it was > 100 µM (inactive).
Take `COc1ccc(NC(=O)CC(=O)N2N=C(N(CCC#N)c3ccccc3Cl)CC2c2ccccc2)cc1` (centres undefined): the GI50 in the experiment on M14, with SK-MEL-28, with LOX IMVI, in the experiment with NCI-H226, in the experiment on UACC-62 and in the experiment with K562 was > 100 µM (inactive) each time. The GI50 with OVCAR-8, with KM12, with SNB-19, in the experiment with MOLT-4, with U-251 and in the experiment on HCC 2998 was > 100 µM (inactive) in each case. Further, the GI50 in the experiment on OVCAR-3 is > 100 µM (inactive); with SNB-75, > 100 µM (inactive); in the experiment with HL-60, > 100 µM (inactive); with A549, > 100 µM (inactive); with HOP-92 it was > 100 µM (inactive); in the experiment with HCT-15, greater than 100 µM. Further, the GI50 with SK-MEL-5 was > 100 µM (inactive).
Take `O=C(c1nc2ccc(Cl)cc2[nH]c1=O)C(O)c1cccc([N+](=O)[O-])c1` (centres undefined): the GI50 is > 100 µM (inactive) in the experiment on M14; 26.7 µM (inactive) in the experiment on SK-MEL-28; 18.5 µM (inactive) with LOX IMVI; > 100 µM (inactive) in the experiment with NCI-H226; 67.6 µM (inactive) with UACC-62; 28.6 µM (inactive) in the experiment with K562. Moreover, the GI50 in the experiment on OVCAR-8 was > 100 µM (inactive); in the experiment on KM12, 57 µM (inactive); in the experiment with SNB-19, > 100 µM (inactive); in the experiment with MOLT-4 it was 35.9 µM (inactive); with U-251 it was > 100 µM (inactive); with HCC 2998, > 100 µM (inactive). For the same compound, the GI50 is > 100 µM (inactive) in the experiment on OVCAR-3; > 100 µM (inactive) in the experiment with SNB-75; 19.8 µM (inactive) with HL-60; > 100 µM (inactive) in the experiment on A549; > 100 µM (inactive) in the experiment on HOP-92; greater than 100 µM in the experiment on HCT-15. Moreover, the GI50 in the experiment with SK-MEL-5 is 48.6 µM (inactive).
As to `O=C(N/C(=C\c1cc(Cl)ccc1Cl)c1nc2cc(Cl)ccc2[nH]1)c1ccccc1`, the GI50 in the experiment with M14 was 17.1 µM (inactive); in the experiment with SK-MEL-28, 17.4 µM (inactive); in the experiment on LOX IMVI, 13.6 µM (inactive); in the experiment on NCI-H226 it was 17.3 µM (inactive); in the experiment with UACC-62, 11.4 µM (inactive); in the experiment with K562, 15.5 µM (inactive). Also, the GI50 was 16.1 µM (inactive) in the experiment with OVCAR-8; 15.4 µM (inactive) in the experiment with KM12; 22.4 µM (inactive) in the experiment with SNB-19; 8.04 µM (inactive) with MOLT-4; 16.1 µM (inactive) in the experiment with U-251; 18.2 µM (inactive) in the experiment with HCC 2998. In addition, the GI50 in the experiment with OVCAR-3 is 15.2 µM (inactive); with SNB-75, 19.1 µM (inactive); in the experiment on HL-60, 14.3 µM (inactive); in the experiment on A549, 16.8 µM (inactive); in the experiment with HOP-92 it was 11.6 µM (inactive); in the experiment with HCT-15 it was 16.4 µM. Moreover, the GI50 with SK-MEL-5 is 13.2 µM (inactive).
